Where two headings read alike, the source gives them in different places. Each block holds one compound with its values, some of them ahead of it.
Assays:
[1] = prior art reports; cited from earlier work
[2] = Storability of crystals at room temperature; format: physicochemical; conditions: room temperatures, relative humidity below 60%
Description: The new crystalline orthorhombic anhydrous lactitol β has a good flowability and storability, since it is stable at room temperatures, the relative humidity being below 60%.

[3] = Crystal form after milling (DSC, X-ray powder diffraction); format: physicochemical; conditions: laboratory hammer mill, 10 g/min, 600 rpm
Procedure: Good quality anhydrous β lactitol crystals (lactitol assay 99.9%, enthalpy 169.4±0.5 J/g) was milled with a small laboratory hammer mill (Culatti). The feed rate was 10 g/min and the hammer speed 600 rpm. Fine lactitol particles were obtained.

[4] = Hygroscopicity / water sorption of lactitol crystals; format: physicochemical
Procedure: The water sorption of a sample of β crystals was less than about 0.3% of water in 45 days even when the relative humidity of the ambient air was 75% at 40° C.

SMILES: OC[C@@H](O)[C@@H](O[C@@H]1O[C@H](CO)[C@H](O)[C@H](O)[C@H]1O)[C@H](O)[C@@H](O)CO [A1 anhydrous lactitol, lactitol]
hygroscopicity [1]: hygroscopic

stability / storability [2]: stable | crystal form after milling [3]: still in the anhydrous β form | hygroscopicity [4]: very low hygroscopicity | hygroscopicity ([4]; 25° C. and 60% relative humidity): very low hygroscopicity | hygroscopicity ([4]; 40° C. and 75% relative humidity): very low hygroscopicity | water sorption ([4]; 40° C., 75% relative humidity, 45 days): less than 0.3%
SMILES: OC[C@@H](O)[C@@H](O[C@@H]1O[C@H](CO)[C@H](O)[C@H](O)[C@H]1O)[C@H](O)[C@@H](O)CO [anhydrous lactitol β, lactitol]

SMILES: OC[C@@H](O)[C@@H](O[C@@H]1O[C@H](CO)[C@H](O)[C@H](O)[C@H]1O)[C@H](O)[C@@H](O)CO [lactitol anhydride]
hygroscopicity [1]: highly hygroscopic

SMILES: OC[C@@H](O)[C@@H](O[C@@H]1O[C@H](CO)[C@H](O)[C@H](O)[C@H]1O)[C@H](O)[C@@H](O)CO [α lactitol, lactitol]
hygroscopicity [1]: low hygroscopicity

— US6872414B1, “Anhydrous lactitol crystals, a product containing the same and a process for the preparation thereof as well as use thereof” (Xyrofin Oy, priority 1999, dated 2005)
